Data reported in publication PMC7139824, “Molecular Mechanisms of PARP-1 Inhibitor 7-Methylguanine” (International Journal of Molecular Sciences, 2020).

Key:
[1] = biological target: T1, poly(ADP-ribose) polymerase 1 (PARP-1) (Homo sapiens, UniProt P09874); test: real-time fluorescence anisotropy activity assay, purified PARP-1 with DNA duplex; competitive kinetics vs NAD+; type: biochemical
T1 construct: gene PARP1

[2] = biological target: T1, poly(ADP-ribose) polymerase 1 (PARP-1); test: fluorescence anisotropy kinetics, reaction rate vs NAD+ concentration ([…]); type: biochemical

T1 sequence (P09874 2-1014): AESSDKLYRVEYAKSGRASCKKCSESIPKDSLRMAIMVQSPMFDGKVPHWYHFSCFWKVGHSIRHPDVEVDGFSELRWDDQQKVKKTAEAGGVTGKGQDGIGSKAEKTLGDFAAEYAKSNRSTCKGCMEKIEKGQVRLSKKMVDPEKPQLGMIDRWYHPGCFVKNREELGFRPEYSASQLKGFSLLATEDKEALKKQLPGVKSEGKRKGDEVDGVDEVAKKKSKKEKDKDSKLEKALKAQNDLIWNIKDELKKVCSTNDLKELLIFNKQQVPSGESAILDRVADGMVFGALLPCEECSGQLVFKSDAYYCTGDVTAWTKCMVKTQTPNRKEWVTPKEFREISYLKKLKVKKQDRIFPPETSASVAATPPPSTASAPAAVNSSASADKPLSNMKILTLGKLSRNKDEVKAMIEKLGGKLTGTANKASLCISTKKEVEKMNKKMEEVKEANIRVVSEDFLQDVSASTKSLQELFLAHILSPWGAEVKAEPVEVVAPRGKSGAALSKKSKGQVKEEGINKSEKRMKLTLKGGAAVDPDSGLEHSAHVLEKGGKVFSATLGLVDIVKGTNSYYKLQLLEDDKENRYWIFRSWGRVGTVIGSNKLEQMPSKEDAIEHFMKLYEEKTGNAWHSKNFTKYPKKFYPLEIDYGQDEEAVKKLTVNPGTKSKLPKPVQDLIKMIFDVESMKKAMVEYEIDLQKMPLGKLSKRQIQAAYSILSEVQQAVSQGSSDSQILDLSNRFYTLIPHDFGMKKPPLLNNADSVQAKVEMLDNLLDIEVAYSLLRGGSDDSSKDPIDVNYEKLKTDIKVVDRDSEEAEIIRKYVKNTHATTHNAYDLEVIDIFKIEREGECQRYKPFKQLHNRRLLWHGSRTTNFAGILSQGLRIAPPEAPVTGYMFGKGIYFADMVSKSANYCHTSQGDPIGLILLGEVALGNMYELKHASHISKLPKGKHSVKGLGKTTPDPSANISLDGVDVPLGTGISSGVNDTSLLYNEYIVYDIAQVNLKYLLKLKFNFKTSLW

Row | Ki [1] [µM] | SMILES | fluorescence anisotropy kinetics, reaction rate vs NAD+ concentration (0-2500 μM) [2]
1 | 61 ± 9 | Cn1cnc2nc(N)[nH]c(=O)c21 [7-MG, 7-methylguanine] | 
2 |  | NC(=O)c1ccc[n+]([C@@H]2O[C@H](COP(=O)([O-])OP(=O)(O)OC[C@H]3O[C@@H](n4cnc5c(N)ncnc54)[C@H](O)[C@@H]3O)[C@@H](O)[C@H]2O)c1 [NAD^+] | Dependence of the PARP-1-catalyzed reaction rate on the NAD^+ concentration at different concentrations of 7-MG
